Earlier results on two molecules are cited in publication PMC8781256, “The Influence of Fed State Lipolysis Inhibition on the Intraluminal Behaviour and Absorption of Fenofibrate from a Lipid-Based Formulation” (Pharmaceutics, 2022).

Data set [1] relates to human gastric lipase (HGL). Set-up: method as in PMID 11408251. To be noted: after intake of solid and liquid meals.
The test system of data set [2] is human pancreatic lipase (HPL). Also noted: method as in PMID 11408251. The note with it: after intake of solid and liquid meals.
Details of data set [3]: method as in PMID 8626884. The note with it: acts locally in the GI tract.

Broadly, the log P is the decadic logarithm of the partition coefficient of the neutral form, usually between octanol and water. Take `CC(C)OC(=O)C(C)(C)Oc1ccc(C(=O)c2ccc(Cl)cc2)cc1` [fenofibrate]: the “log P” value is recorded as 5.21.
As to `CCCCCCCCCCC[C@@H](C[C@@H]1OC(=O)[C@H]1CCCCCC)OC(=O)[C@H](CC(C)C)NC=O` [orlistat, tetrahydrolipstatin], the HGL enzyme inhibition in data set [1] was 46.6–91.4%. For the same molecule, the HPL enzyme inhibition in data set [2] was 51.2–82.6%. In data set [3], the systemic uptake result is recorded as “negligible”.
